The values below come from patent publication US6686370B2, “Triazospiro compounds having nociceptin receptor affinity” (Euro-Celtique S.A., priority 1999, dated 2004).

A word on the melting point: it is the temperature, or range, at which the solid turns liquid. `O=C1NCN(c2ccccc2)C12CCN(C1CCc3ccccc3C1)CC2` (stereo not shown) [8-[1,2,3,4tetrahydronaphthyl]-1-phenyl-1,3,8-triazospiro[4.5]decan-4-one] had a melting point of 192 to 193 °C.
